Literature values as cited in US12023406B2, “Gastric residence systems with release rate-modulating films” (Lyndra Therapeutics, Inc., priority 2017, dated 2024).

Settings: gastric pH range

In the case of `Cc1nc2n(c(=O)c1CCN1CCC(c3noc4cc(F)ccc34)CC1)CCCC2` [risperidone], the “solubility at pH 1.5 versus pH 4.8” value is listed as “significantly higher at the more acidic end of the gastric pH range”.
